From patent publication US10125118B2, “Heteroaryl compounds and their use as therapeutic drugs” (Dong-A Socio Holdings Co., Ltd., priority 2015, dated 2018)

biological target: human c-MER catalytic domain (Homo sapiens (Human), UniProt Q12866); experiment: LanthaScreen TR-FRET kinase assay, c-MER; conditions: read-out: Mer TK inhibition (IC50); Biochemical IC50, TR-FRET, 10 uM ATP
Sequence (Q12866 587-858): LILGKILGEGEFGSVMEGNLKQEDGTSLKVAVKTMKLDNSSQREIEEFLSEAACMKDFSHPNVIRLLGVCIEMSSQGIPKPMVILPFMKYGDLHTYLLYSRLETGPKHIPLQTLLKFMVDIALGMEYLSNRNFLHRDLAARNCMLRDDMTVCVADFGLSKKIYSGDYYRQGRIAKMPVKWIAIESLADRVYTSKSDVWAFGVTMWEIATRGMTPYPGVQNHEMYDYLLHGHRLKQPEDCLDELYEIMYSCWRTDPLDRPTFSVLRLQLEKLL

| SMILES | IC50 |
| --- | --- |
| Cn1cc(-c2cnc(N)c(C(=O)N[C@@H](COCc3ccccc3)c3ccccc3)c2)cn1 [Example 116, (R)-2-amino-N-(2-(benzyloxy)-1-phenylethyl)-5-(1-methyl-1H-pyrazol-4-yl)nicotinamide] | > 1000 nM |
| Cn1cc(-c2cnc(N)c(C(=O)N[C@H]3COC[C@@H]3N3CCOCC3)c2)cn1 (relative stereo) [Example 90, 2-amino-5-(1-methyl-1H-pyrazol-4-yl)-N-(trans-4-morpholinotetrahydrofuran-3-yl)nicotinamide] | > 1000 nM |
| COC(=O)[C@H](COCc1ccccc1)NC(=O)c1cc(-c2cnn(C)c2)cnc1N [Example 120, methyl N-(2-amino-5-(1-methyl-1H-pyrazol-4-yl)nicotinoyl)-O-benzyl-L-serinate] | > 1000 nM |
| Cc1ccc(CNc2ncc(-c3cnn(C)c3)cc2C(=O)N[C@H]2CCC[C@@H]2OCc2ccccc2)cc1C [Example 72, N-((1S,2S)-2-(benzyloxy)cyclopentyl)-2-((3,4-dimethylbenzyl-)amino)-5-(1-methyl-1H-pyrazol-4-yl)nicotinamide] | > 1000 nM |
| C[C@H](N)C(=O)Nc1cccc(CO[C@H]2CCC[C@@H]2NC(=O)c2cc(-c3cnn(C)c3)cnc2N)c1 [Example 58, 2-amino-N-((1S,2S)-2-((3-((S)-2-aminopropanamido)benzyl)oxy)-cyclopentyl)-5-(1-methyl-1H-pyrazol-4-yl)nicotinamide] | > 1000 nM |
| Cc1ccc(COC[C@@H](C)NC(=O)c2cc(-c3cnn(C)c3)cnc2N)cc1C [Example 100, (R)-2-amino-N-(1-((3,4-dimethylbenzyl)oxy)propan-2-yl)-5-(1-methyl-1H-pyrazol-4-yl)nicotinamide] | > 1000 nM |
| COC(=O)c1cccc(CO[C@H]2CCC[C@@H]2NC(=O)c2cc(-c3cnn(C)c3)cnc2N)c1 [Example 42, methyl 3-((((1S,2S)-2-(2-amino-5-(1-methyl-1H-pyrazol-4-yl)nicotinamido)cyclopentyl)oxy)methyl)benzoate] | > 1000 nM |
| CN1CCN(c2ccc(Nc3ccc(C(=O)N[C@H]4CCC[C@@H]4OCc4ccccc4)c(N)n3)cc2)CC1 [Example 458, 2-amino-N-((1S,2S)-2-(benzyloxy)cyclopentyl)-6-((4-(4-methylpiperazin-1-yl)phenyl)amino)nicotinamide] | > 1000 nM |
| Cn1cc(-c2cnc(N)c(C(=O)N[C@H](COCc3ccccc3)c3ccccc3)c2)cn1 [Example 115, (S)-2-amino-N-(2-(benzyloxy)-1-phenylethyl)-5-(1-methyl-1H-pyrazol-4-yl)nicotinamide] | > 1000 nM |
| Cn1cc(-c2cnc(N)c(C(=O)N[C@@H](CO)C3CCCCC3)c2)cn1 [Example 114, (R)-2-amino-N-(1-cyclohexyl-2-hydroxyethyl)-5-(1-methyl-1H-pyrazol-4-yl)nicotinamide] | > 1000 nM |
| C[C@H](COCc1ccc(Cl)c(Cl)c1)NC(=O)c1cc(-c2cnn(C)c2)cnc1N [Example 104, (R)-2-amino-N-(1-((3,4-dichlorobenzyl)oxy)propan-2-yl)-5-(1-methyl-1H-pyrazol-4-yl)nicotinamide] | > 1000 nM |
| C[C@@H](OCc1ccccc1)[C@H](NC(=O)c1cc(-c2cnn(C)c2)cnc1N)C(=O)NC1CCCC1 [Example 124, 2-amino-N-((2S,3R)-3-(benzyloxy)-1-(cyclopentylamino)-1-oxobutan-2-yl)-5-(1-methyl-1H-pyrazol-4-yl)nicotinamide] | > 1000 nM |
| Cn1cc(-c2cnc(N)c(C(=O)N[C@@H](COCc3ccccc3)C3CCCCC3)c2)cn1 [Example 113, (R)-2-amino-N-(2-(benzyloxy)-1-cyclohexylethyl)-5-(1-methyl-1H-pyrazol-4-yl)nicotinamide] | > 1000 nM |
| CC(=O)N[C@@H](C)C(=O)Nc1cccc(CO[C@H]2CCC[C@@H]2NC(=O)c2cc(-c3cnn(C)c3)cnc2N)c1 [Example 59, N-((1S,2S)-2-((3-((S)-2-acetamidopropanamido)benzyl)oxy)-cyclopentyl)-2-amino-5-(1-methyl-1H-pyrazol-4-yl)nicotinamide] | > 1000 nM |
| Cn1cc(-c2cnc(N)c(C(=O)N[C@H]3CCC[C@@H]3OCc3ccccc3-c3ccccc3)c2)cn1 (relative stereo) [Example 66, N-(trans-2-([1,1′-biphenyl]-2-ylmethoxy)cyclopentyl)-2-amino-5-(1-methyl-1H-pyrazol-4-yl)nicotinamide] | > 1000 nM |
| CC(C)C[C@H](COCc1ccccc1)NC(=O)c1cc(-c2cnn(C)c2)cnc1N [Example 112, (R)-2-amino-N-(1-(benzyloxy)-4-methylpentan-2-yl)-5-(1-methyl-1H-pyrazol-4-yl)nicotinamide] | > 1000 nM |
| Cn1cc(-c2cnc(N)c(C(=O)N[C@H]3CCC[C@@H]3OCc3ccccc3)c2)c(CNCCO)n1 [Example 262, 2-amino-N-((1S,2S)-2-(benzyloxy)cyclopentyl)-5-(3-(((2-hydroxyethyl)amino)methyl)-1-methyl-1H-pyrazol-4-yl)nicotinamide] | > 1000 nM |
| Cn1cc(-c2cnc(N)c(C(=O)N[C@H]3CCC4(OCCO4)[C@@H]3OCc3ccccc3)c2)cn1 [Example 73, 2-amino-N-((6R,7S)-6-(benzyloxy)-1,4-dioxaspiro[4.4]nonan-7-yl)-5-(1-methyl-1H-pyrazol-4-yl)nicotinamide] | > 1000 nM |

| SMILES | IC50 |
| --- | --- |
| Cn1cc(-c2cnc(N)c(C(=O)NC(C)(C)COCc3ccccc3)c2)cn1 [Example 99, 2-amino-N-(1-(benzyloxy)-2-methylpropan-2-yl)-5-(1-methyl-1H-pyrazol-4-yl)nicotinamide] | > 1000 nM |
| CNC(=O)[C@@H](NC(=O)c1cc(-c2cnn(C)c2)cnc1N)[C@@H](C)OCc1ccccc1 [Example 122, 2-amino-N-((2S,3R)-3-(benzyloxy)-1-(methylamino)-1-oxobutan-2-yl)-5-(1-methyl-1H-pyrazol-4-yl)nicotinamide] | > 1000 nM |
| C[C@H](COCc1ccccc1)NC(=O)c1cc(-c2cnn(C)c2)cnc1N [Example 98, (R)-2-amino-N-(1-(benzyloxy)propan-2-yl)-5-(1-methyl-1H-pyrazol-4-yl)nicotinamide] | > 1000 nM |
| C[C@H](COCc1ccc(Cl)cc1)NC(=O)c1cc(-c2cnn(C)c2)cnc1N [Example 102, (R)-2-amino-N-(1-((4-chlorobenzyl)oxy)propan-2-yl)-5-(1-methyl-1H-pyrazol-4-yl)nicotinamide] | > 1000 nM |
| CN1CCN(Cc2ccc(Nc3ccc(C(=O)N[C@H]4CCC[C@@H]4OCc4ccccc4)c(N)n3)cc2)CC1 [Example 456, 2-amino-N-((1S,2S)-2-(benzyloxy)cyclopentyl)-6-((4-((4-methylpiperazin-1-yl)methyl)phenyl)amino)nicotinamide] | > 1000 nM |
| CN1CCN(Cc2ccc(-c3ccc(CO[C@H]4COCC4NC(=O)c4cc(-c5cnn(C)c5)cnc4N)cc3)cc2)CC1 (stereo partly drawn) [Example 454] | < 10 nM |
| Cn1cc(-c2cnc(N)c(C(=O)N[C@H]3CCC[C@@H]3OCc3cc(F)c(F)cc3F)c2)cn1 (relative stereo) [Example 50, 2-amino-5-(1-methyl-1H-pyrazol-4-yl)-N-(trans-2-((2,4,5-trifluorobenzyl)oxy)cyclopentyl)nicotinamide] | > 1000 nM |
| Cn1cc(-c2cnc(N)c(C(=O)N[C@@H](COCc3ccccc3)Cc3ccccc3)c2)cn1 [Example 118, (R)-2-amino-N-(1-(benzyloxy)-3-phenylpropan-2-yl)-5-(1-methyl-1H-pyrazol-4-yl)nicotinamide] | > 1000 nM |
| CC(c1ccc(-c2ccc(CO[C@H]3CCC[C@@H]3NC(=O)c3cc(Cl)cnc3N)cc2)cc1)N1CCN(C)CC1 (stereo partly drawn) [Example 231] | < 10 nM |
| Cn1cc(-c2cnc(N)c(C(=O)N[C@H]3CCC[C@@H]3OCc3ccccc3)n2)cn1 [Example 129, 3-amino-N-((1S,2S)-2-(benzyloxy)cyclopentyl)-6-(1-methyl-1H-pyrazol-4-yl)pyrazine-2-carboxamide] | > 1000 nM |
| CN(Cc1ccccc1)[C@H]1CCC[C@@H]1NC(=O)c1cc(-c2cnn(C)c2)cnc1N (relative stereo) [Example 76, 2-amino-N-(trans-2-(benzyl(methyl)amino)cyclopentyl)-5-(1-methyl-1H-pyrazol-4-yl)nicotinamide] | > 1000 nM |
| Cn1cc(-c2cnc(N)c(C(=O)N[C@H]3CCC[C@@H]3OCc3cccc(NC(=O)C4CCNCC4)c3)c2)cn1 [Example 57, 2-amino-5-(1-methyl-1H-pyrazol-4-yl)-N-((1S,2S)-2-((3-(piperidine-4-carboxamido)benzyl)oxy)cyclopentyl)nicotinamide] | > 1000 nM |
| Cn1cc(-c2cnc(N)c(C(=O)N[C@H]3CCC[C@@H]3OCc3ccc(-c4cccc(CN)c4)cc3)c2)cn1 [Example 143] | > 1000 nM |
| Cn1cc(-c2cnc(N)c(C(=O)N[C@H]3CCC[C@H]3O)c2)cn1 (relative stereo) [Example 70, 2-amino-N-(cis-2-hydroxycyclopentyl)-5-(1-methyl-1H-pyrazol-4-yl)nicotinamide] | > 1000 nM |
| Nc1nc(Nc2ccccc2)ccc1C(=O)N[C@H]1CCC[C@@H]1OCc1ccccc1 [Example 457, 2-amino-N-((1S,2S)-2-(benzyloxy)cyclopentyl)-6-(phenylamino)-nicotinamide] | > 1000 nM |
| CCNc1ncc(-c2cnn(C)c2)cc1C(=O)N[C@H]1CCC[C@@H]1OCc1ccccc1 [Example 71, N-((1S,2S)-2-(benzyloxy)cyclopentyl)-2-(ethylamino)-5-(1-methyl-1H-pyrazol-4-yl)nicotinamide] | > 1000 nM |
| CN1CCN(Cc2ccc(-c3ccc(CO[C@H]4CCC[C@@H]4NC(=O)c4cc(C5=CCCCC5)cnc4N)cc3)cc2)CC1 [Example 382, 2-amino-5-(cyclohex-1-en-1-yl)-N-((1S,2S)-2-((4′-((4-methylpiperazin-1-yl)methyl)-[1,1′-biphenyl]-4-yl)methoxy)cyclopentyl)nicotinamide] | < 10 nM |
| CN1CCN(Cc2ccc(-c3ccc(CO[C@H]4CCC[C@@H]4NC(=O)c4cc(-c5cnn(C)c5)cnc4N)cc3)nc2)CC1 [Example 204, 2-amino-5-(1-methyl-1H-pyrazol-4-yl)-N-((1S,2S)-2-((4-(5-((4-methylpiperazin-1-yl)methyl)pyridin-2-yl)benzyl)oxy)cyclopentyl)nicotinamide] | < 10 nM |
